Measured values: US12295959B2 (priority 2021, dated 2025)
pEC50, pIC50: −log10 of the molar value.

Experiments:
5HT2A sensor = format: cell-based
5-HT2A [1] = target: T1, 5-HT2A (Homo sapiens, UniProt P28223); experiment: Serotonin 5-HT2A in vitro cellular IPOne agonism assay (HTRF); format: cell-based; set-up: host or cells: CHO-K1; settings: CHO-K1 cells, agonist mode
Method: (§1) Serotonin 5-HT2A In Vitro Cellular IPOne Agonism Assay. The 5-HT2A IPOne HTRF assay was performed at Epics Therapeutics S.A. (Belgium, FAST-0505I) using conventional methods. Briefly, CHO-K1 cells expressing human recombinant 5-HT2A receptor grown to mid-log phase in culture media without antibiotics were detached with PBS-EDTA, centrifuged, and resuspended in medium without antibiotics buffer. 20,000 cells were distributed in a 96 well plate and incubated overnight at 37° C. with 5% CO2.
For agonist testing, the medium was removed and 20 μl of assay buffer plus 20 μl of test compound or reference agonist are added in each well. The plate was incubated for 60 min. at 37° C. with 5% CO2.
(§2) After addition of the lysis buffer containing IP1-d2 and anti-IP1 cryptate detection reagents, plates were incubated 1-hour at room temperature, and fluorescence ratios were measured according to the manufacturer specification, with the HTRF kit.

rat cortical neurons = experiment: Neurite outgrowth assay; format: cell-based; set-up: key: A: Statistically significant mean increase as a percent of DMSO control at 10 μM or less.; B: No statistically significant mean increase as a percent of DMSO control at 10 μM or less; settings: 72 h, 10 μM or less, vs DMSO control
Text: Neurite Outgrowth Assay. Changes in the pattern of neurite outgrowth have been implicated in psychiatric and neurodegenerative disorders as well as traumatic injuries. The discovery of new compounds that can positively affect neuritogenesis are important for developing new therapeutics for neurological diseases. Measurement of neurite outgrowth of rat cortical neurons using an automated image-based assay was used to determine the neuroplastic effects of the compounds of the present invention. The neurite outgrowth assay was performed at Neurofit SAS (France) as described below.
Pregnant Wistar rats (Janvier; France) were used for the study. They were delivered 6 days before their use. Upon arrival at Neurofit animal facility, they were housed one per cage and maintained in a room with controlled temperature (21-22° C.) and a reversed light-dark cycle (12 h/12 h; lights on: 17:30-05:30; lights off: 05:30-17:30) with food and water available ad libitum.
Female Wistar rats of 17 days gestation were killed by cervical dislocation and the fetuses were removed from the uterus. Their brains were placed in ice-cold medium of Leibovitz (L15, Gibco, Fisher bioblock, France). Cortices were dissected and meninges were carefully removed. The cortical neurons were dissociated by trypsinization for 30 min at 37° C. (trypsin-EDTA, Gibco) in presence of 0.1 mg/ml DNAse I (Roche, France). The reaction was stopped by addition of Dulbecco's Modified Eagle Medium (DMEM; Gibco) with 10% of fetal bovine serum (FBS; Gibco). The suspension was triturated with a 10-ml pipette and using a needle syringe 21G and centrifuged at 350×g for 10 min at room temperature. The pellet of dissociated cells was resuspended in a medium consisting of Neurobasal (Gibco) supplemented with 2% B27 supplement (Gibco), 0.5 mM L-Glutamine (Gibco), an antibiotic-antimicotic mixture. Viable cells were counted in a Neubauer cytometer using the trypan blue exclusion test (Sigma). Cells were seeded at a density of 10000 cells per well in 96-well plate (Costar) precoated with poly-L-lysine. Test compound at different concentrations were added to the cultures. Donepezil (positive control) was tested at 250 nM.
After 72 h (3 days) of plating, cultures were fixed with paraformaldehyde in PBS (4%, Sigma) for 30 min at 4° C. Then, cells were successively permeabilized with 0.1% Triton X100 for 30 min, saturated with PBS containing 3% of BSA and were incubated 1 h with anti-beta III tubulin antibody (Sigma) at 1/10 000 in PBS containing 0.5% of BSA. Cells were washed three times with PBS containing 0.5% of BSA, and they were incubated 1 h with goat anti-mouse antibody coupled with AF488 (Invitrogen A 11001) diluted at 1/1000 in PBS containing 0.5% of BSA. Finally, nuclei were staining with DAPI 1 mg/ml at 1/1000 in PBS containing 0.5% of BSA. After rinsing with PBS, the plate was filmed and neurite networks were examined and analyzed using High-Content Screening (CellInsight, Thermo Scientific). The average number of neurites per neuron and the average total length of neurites per neuron were the main parameters analyzed. Analysis of data was performed using analysis of variance (ANOVA). The Fisher's Protected Least Significant Difference test was used for multiple comparisons. A p value≤0.05 was considered significant. The software used is StatView 5.0 from SAS Institut.

5-HT2A [2] = target: T1, 5-HT2A; experiment: Serotonin 5-HT2A in vitro cellular IPOne antagonism assay; format: cell-based; set-up: host or cells: CHO-K1; settings: CHO-K1 cells, antagonist mode, reference agonist a-Me-5HT
Method: as §1, with “Serotonin 5-HT2A and 5-HT2C In Vitro” for “Serotonin 5-HT2A In Vitro”, “Cellular IPOne Antagonism Assay. The” for “Cellular IPOne Agonism Assay. The”, “(Belgium, FAST-0505I) in antagonism mode using conventional” for “(Belgium, FAST-0505I) using conventional”
For antagonist testing, a reference agonist a-Me-5HT was added and fluorescence signal monitored for several minutes, followed by addition of 20 μl of assay buffer plus 20 μl of test compound or reference antagonist ketanserin, in each well. The plate was incubated for 60 min. at 37° C. with 5% CO2.
as §2

5-HT2A [3] = target: T1, 5-HT2A; experiment: Serotonin 5-HT2A in vitro radioligand binding competition assay ([3H]-DOI); set-up: purchased Epics Therapeutics S.A. (Belgium) FAST-0505B; host or cells: membrane extracts; settings: [3H]-DOI competition, membrane extracts
Method: Serotonin 5-HT2A In Vitro Radioligand Binding Competition Assay. The 5-HT2A radioligand binding competition assay was performed at Epics Therapeutics S.A. (Belgium, FAST-0505B) using conventional methods. Briefly, competition binding was performed in duplicate in the wells of a 96 well plate (Master Block, Greiner, 786201) containing binding buffer (optimized for each receptor), membrane extracts (amount of protein/well optimized for each receptor), radiotracer [^3H]-DOI (final concentration optimized for each receptor) and test compound. Nonspecific binding was determined by co-incubation with 200-fold excess of cold competitor. The samples were incubated in a final volume of 0.1 ml at a temperature and for a duration optimized for each receptor and then filtered over filter plates. Filters were washed six times with 0.5 ml of ice-cold washing buffer (optimized for each receptor) and 50 μl of Microscint 20 (Packard) was added in each well. The plates were incubated 15 min on an orbital shaker and then counted with a TopCount™ for 1 min/well.

T1 sequence (P28223 whole entry): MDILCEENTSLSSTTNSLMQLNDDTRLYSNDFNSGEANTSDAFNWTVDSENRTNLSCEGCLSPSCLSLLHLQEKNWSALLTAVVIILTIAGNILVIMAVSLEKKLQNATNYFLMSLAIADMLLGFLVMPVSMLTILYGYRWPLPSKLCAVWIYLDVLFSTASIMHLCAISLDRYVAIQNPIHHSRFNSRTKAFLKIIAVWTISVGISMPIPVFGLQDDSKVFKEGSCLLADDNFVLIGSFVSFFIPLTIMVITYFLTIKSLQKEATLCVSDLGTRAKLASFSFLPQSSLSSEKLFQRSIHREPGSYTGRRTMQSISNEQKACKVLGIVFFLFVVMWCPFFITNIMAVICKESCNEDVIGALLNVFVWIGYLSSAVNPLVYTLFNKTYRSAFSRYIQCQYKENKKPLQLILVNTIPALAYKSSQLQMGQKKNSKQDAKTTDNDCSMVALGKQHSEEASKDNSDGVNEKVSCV

For `CNC(C)Cc1ccc2c(c1)OCO2` [L-MDMA], the “activation of the 5HT2A sensor assay in agonist mode” value (5HT2A sensor) was “do not activate”.
With `COc1cc(CC(C)N)c(OC)cc1I` (stereo not drawn) [DOI] the “activation of the 5HT2A sensor assay in agonist mode” value (5HT2A sensor) was “activate”.
`CN1CCc2c(n(C)c3cc(Oc4ccc(F)cc4)ccc23)CC1` [Compound 18, 8-(4-fluorophenoxy)-3,6-dimethyl-1,2,3,4,5,6-hexahydroazepino[4,5-b]indole] was tested, and the pEC50 (5-HT2A [1]) was < 5.00, the “Increase in Neurite Branching” value (rat cortical neurons) was “A” and the “Increase in Neurite Length” value (rat cortical neurons) was “A”. The “Increase in Neurite Number” value (rat cortical neurons) was “A”, the pIC50 (5-HT2A [2]) was 6.00 to 7.00 and the pIC50 (5-HT2A [3]) was 6.00 to 7.00.
`CN1CCc2[nH]c3cc(Oc4ccccc4)ccc3c2CC1` [Compound 12, 3-methyl-8-phenoxy-1,2,3,4,5,6-hexahydroazepino[4,5-b]indole] was tested, and the pEC50 (5-HT2A [1]) was < 5.00, the “Increase in Neurite Branching” value (rat cortical neurons) was “A” and the “Increase in Neurite Length” value (rat cortical neurons) was “A”. The “Increase in Neurite Number” value (rat cortical neurons) was “A”, the pIC50 (5-HT2A [2]) was 6.00 to 7.00 and the pIC50 (5-HT2A [3]) was 6.00 to 7.00.
`CN1CCc2[nH]c3cccc(Oc4ccc(F)cc4)c3c2CC1` [Compound 22, 10-(4-fluorophenoxy)-3-methyl-1,2,3,4,5,6-hexahydroazepino[4,5-b]indole] was tested, and the pEC50 (5-HT2A [1]) was < 5.00, the “Increase in Neurite Branching” value (rat cortical neurons) was “A” and the “Increase in Neurite Length” value (rat cortical neurons) was “A”. The “Increase in Neurite Number” value (rat cortical neurons) was “A”, the pIC50 (5-HT2A [2]) was 7.00 to 8.00 and the pIC50 (5-HT2A [3]) was 7.00 to 8.00.
With `CN1CCc2c(n(C)c3cccc(Oc4ccc(F)cc4)c23)CC1` [Compound 24, 10-(4-fluorophenoxy)-3,6-dimethyl-1,2,3,4,5,6-hexahydroazepino[4,5-b]indole] the pEC50 (5-HT2A [1]) was < 5.00, the “Increase in Neurite Branching” value (rat cortical neurons) was “B” and the “Increase in Neurite Length” value (rat cortical neurons) was “A”. The “Increase in Neurite Number” value (rat cortical neurons) was “B”, the pIC50 (5-HT2A [2]) was 7.00 to 8.00 and the pIC50 (5-HT2A [3]) was 7.00 to 8.00.
For `c1ccc(COc2ccc3[nH]c4c(c3c2)CCNCC4)cc1` [Compound 25, 9-(benzyloxy)-1,2,3,4,5,6-hexahydroazepino[4,5-b]indole], the pEC50 (5-HT2A [1]) was < 5.00, the “Increase in Neurite Length” value (rat cortical neurons) was “A” and the pIC50 (5-HT2A [2]) was 6.00 to 7.00. The pIC50 (5-HT2A [3]) was 6.00 to 7.00.
`Fc1ccc(COc2ccc3c4c([nH]c3c2)CCNCC4)cc1` [Compound 7, 8-((4-fluorobenzyl)oxy)~1,2,3,4,5,6-hexahydroazepino[4,5-b]indole] was tested, and the pEC50 (5-HT2A [1]) was 6.00 to 7.00, the “Increase in Neurite Branching” value (rat cortical neurons) was “B” and the “Increase in Neurite Length” value (rat cortical neurons) was “B”. The “Increase in Neurite Number” value (rat cortical neurons) was “B”, the pIC50 (5-HT2A [2]) was 6.00 to 7.00 and the pIC50 (5-HT2A [3]) was 6.00 to 7.00.
With `CN1CCc2[nH]c3ccc(OCc4ccccc4)cc3c2CC1` [Compound 26, 9-(benzyloxy)-3-methyl-1,2,3,4,5,6-hexahydroazepino[4,5-b]indole] the pEC50 (5-HT2A [1]) was < 5.00, the “Increase in Neurite Branching” value (rat cortical neurons) was “A” and the “Increase in Neurite Length” value (rat cortical neurons) was “A”. The “Increase in Neurite Number” value (rat cortical neurons) was “A”, the pIC50 (5-HT2A [2]) was 6.00 to 7.00 and the pIC50 (5-HT2A [3]) was 6.00 to 7.00.
In the case of `Cn1c2c(c3c(OCc4ccccc4)cccc31)CCNCC2` [Compound 19, 10-(benzyloxy)-6-methyl-1,2,3,4,5,6-hexahydroazepino[4,5-b]indole], the pEC50 (5-HT2A [1]) was 5.00 to 6.00, the “Increase in Neurite Branching” value (rat cortical neurons) was “B” and the “Increase in Neurite Length” value (rat cortical neurons) was “B”. For the same molecule, the “Increase in Neurite Number” value (rat cortical neurons) was “B”, the pIC50 (5-HT2A [2]) was 6.00 to 7.00 and the pIC50 (5-HT2A [3]) was 6.00 to 7.00.
For `Cn1c2c(c3ccc(OCc4ccccc4)cc31)CCNCC2` [Compound 5, 8-(benzyloxy)-6-methyl-1,2,3,4,5,6-hexahydroazepino[4,5-b]indole], the pEC50 (5-HT2A [1]) was < 5.00, the “Increase in Neurite Branching” value (rat cortical neurons) was “B” and the “Increase in Neurite Length” value (rat cortical neurons) was “B”. For the same molecule, the “Increase in Neurite Number” value (rat cortical neurons) was “B”, the pIC50 (5-HT2A [2]) was 6.00 to 7.00 and the pIC50 (5-HT2A [3]) was 6.00 to 7.00.
In the case of `CN1CCc2[nH]c3c(Br)ccc(OCc4ccccc4)c3c2CC1` [Compound 29, 10-(benzyloxy)-7-bromo-3-methyl-1,2,3,4,5,6-hexahydroazepino[4,5-b]indole], the pEC50 (5-HT2A [1]) was 7.00 to 8.00, the “Increase in Neurite Branching” value (rat cortical neurons) was “B” and the “Increase in Neurite Length” value (rat cortical neurons) was “A”. The “Increase in Neurite Number” value (rat cortical neurons) was “B”, the pIC50 (5-HT2A [2]) was 7.00 to 8.00 and the pIC50 (5-HT2A [3]) was 7.00 to 8.00.
In the case of `CN1CCc2c(n(C)c3cc(Oc4ccccc4)ccc23)CC1` [Compound 14, 3,6-dimethyl-8-phenoxy-1,2,3,4,5,6-hexahydroazepino[4,5-b]indole], the pEC50 (5-HT2A [1]) was < 5.00, the “Increase in Neurite Branching” value (rat cortical neurons) was “B” and the “Increase in Neurite Length” value (rat cortical neurons) was “A”. For the same molecule, the “Increase in Neurite Number” value (rat cortical neurons) was “B”, the pIC50 (5-HT2A [2]) was 5.00 to 6.00 and the pIC50 (5-HT2A [3]) was 5.00 to 6.00.
